Reference: patent US20130209433A1, “MODULATION OF AMINO ACID METABOLISM IN THE HYPOTHALAMUS” (Albert Einstein College of Medicine of Yeshiva University, priority 2005, published 2013)

Legend:
conscious rats = experiment: Intrahypothalamic (mediobasal hypothalamus) infusion with pancreatic clamp; format: in vivo, rat; settings: for rate of glucose infusion required to maintain basal glucose levels: IH infusion 0.33 μl/h (L-glutamate 1 mM; KIC 3 mM bilaterally); for glucose production: IH infusion into mediobasal hypothalamus
Protocol: Thus, we next tested whether the intra-hypothalamic ([…]) administration of glutamate could recapitulate the effects of […] proline on glucose production.
We next aimed to localize the central effects of KIC on liver glucose production. Toward this end, we administered 3 mM KIC (0.33 μl/h) bilaterally within the parenchyma of the medial hypothalamus. The total amount of KIC given during these experiments was 15 fold lower than that used in the ICV experiments. The correct placement of the hypothalamic cannulae was verified via the infusion of radiolabeled KIC as previously reported.

Sprague Dawley rats = experiment: ICV (third cerebral ventricle) infusion combined with systemic pancreatic-insulin clamp; format: in vivo, rat; settings: for rate of glucose infusion (GIR) required to prevent hypoglycemia / decrease in endogenous glucose production / rate of glucose uptake: ICV infusion; for rate of glucose infusion (GIR) required to prevent hypoglycemia / decrease in endogenous glucose production: 3 mM solution at 5 μl/h for 6 hr; for rate of glucose infusion (GIR) required to prevent hypoglycemia: basal insulin clamp; for decrease in endogenous glucose production / rate of glucose uptake: pancreatic-insulin clamp; for rate of glucose uptake: 3 mM solution at 5 μl/h
Text: To test this hypothesis we asked whether a primary increase in hypothalamic proline is per se sufficient to inhibit glucose production, and whether this effect requires metabolism of lactate to pyruvate. Experiments were designed to examine the effect of central administration of proline on whole body insulin action. In order to selectively increase the central availability of proline, we infused this amino acid via a chronic cannula implanted in the third cerebral ventricle (ICV) of conscious rats.
Proline (PRO, 3 mM solution at 5 μl/h) or vehicle (CON) was infused ICV for 6 hr in chronically catheterized Sprague Dawley rats. Insulin action was assessed by a combination of ICV infusions with systemic pancreatic-insulin clamp studies in order to control for the circulating levels of glucoregulatory hormones.
We next examined whether the effect of central proline on glucose production requires the inter-conversion between lactate and pyruvate catalyzed by LDH. In light of the ‘astrocyte-neuron lactate shuttle hypothesis’ (Pellerin and Magistretti, 2004), we proposed that central administration of proline leads to increased glutamate synthesis results in the increased formation of lactate (increased glycolysis) in astro-glia (Pellerin and Magistretti, 2004). Based on our previous work, the increased availability of lactate would in turn be expected to induce robust changes in liver glucose fluxes. Consistent with this hypothesis, impeding the conversion of glucose to lactate in astrocytes or of lactate to pyruvate in neurons within the hypothalamus should inhibit the potent metabolic effects of central proline on liver glucose fluxes. Oxamate (OXA) is a competitive inhibitor of LDH (Brooks et al., 1999). Thus, to test this hypothesis we next co-infused ICV oxamate (50 mM; 3 μl bolus; 5 μl/h) with proline in order to examine whether lactate metabolism is required for the effects of proline and presumably of other gluconeogenic amino acids on glucose production.
The entry of ketogenic amino acids into the oxidative pathway requires their conversion to the respective keto acid a reaction that is catalyzed by various amino acid aminotransferases. The keto acid product generated by leucine aminotransferase from leucine is α-ketoisocaproic acid (KIC) that can then be converted to acetyl-CoA by the consecutive action of five enzymes. The rate-limiting step in this process is the oxidative decarboxylation of KIC catalyzed by the branched-chain ketoacid dehydrogenase complex or BCKDC. This enzyme is inhibited by phosphorylation by a BCKDC kinase. Importantly, BCKDC can be robustly activated by α-chloroisocaproic acid (α-CIC) via inhibition of the BCKDC kinase (Harris et al., 1982). To test whether the central metabolism of ketogenic amino acids such as leucine could also lead to inhibition of glucose production, we next asked whether a primary increase in hypothalamic KIC is per se sufficient to inhibit glucose production, and whether this effect also requires metabolism of lactate to pyruvate and activation of ATP-dependent potassium channels (KATP). Experiments were designed to examine the effect of central administration of KIC on whole body insulin action.

SMILES: CC(C)CC(=O)C(=O)O [KIC, α-ketoisocaproic acid]
- glucose utilization (GU) (conscious rats; IH 3 mM KIC, 0.33 μl/h bilaterally, pancreatic clamp): not altered
- rate of glucose infusion required to maintain basal glucose levels (conscious rats; pancreatic clamp): increase
- glucose production (conscious rats): suppression
- rate of glucose infusion (GIR) required to prevent hypoglycemia (Sprague Dawley rats): 5.2 ± 0.7 mg/kg/min
- decrease in endogenous glucose production (Sprague Dawley rats): 40±4%
- rate of glucose uptake (Sprague Dawley rats): not significantly affected

SMILES: N[C@@H](CCC(=O)O)C(=O)O [L-glutamate]
- circulating glucose after IH administration (conscious rats; IH 1 mM, 0.33 μl/h): 136 ± 2 mg/dL
- rate of glucose infusion required to maintain basal glucose levels (conscious rats; pancreatic clamp): significantly increased
- glucose production (conscious rats): marked suppression
- circulating glucose before IH administration (conscious rats; basal value, before IH L-glutamate 1 mM, 0.33 μl/h): 159 ± 3 mg/dL

SMILES: COc1ccc(Cl)cc1C(=O)NCCc1ccc(S(=O)(=O)NC(=O)NC2CCCCC2)cc1 [glibenclamide, reference compound]
- effect per se on rate of glucose infusion and liver glucose fluxes (Sprague Dawley rats; ICV infusion alone, pancreatic clamp): no effects
- effect on the effects of ICV KIC on rate of glucose infusion and liver glucose fluxes (Sprague Dawley rats; co-infused ICV with KIC, oxamate 50 mM, 3 μl bolus, 5 μl/h, glibenclamide 100 μM, pancreatic clamp): negated

SMILES: O=C(O)[C@@H]1CCCN1 [proline]
- rate of glucose infusion (GIR) required to prevent hypoglycemia (Sprague Dawley rats): 5.7 ± 0.9 mg/kg/min
- decrease in endogenous glucose production (Sprague Dawley rats): 36±2%
- rate of glucose uptake (Sprague Dawley rats): not significantly affected

SMILES: CC(C)CC(Cl)C(=O)O (stereo not drawn) [α-CIC, α-chloroisocaproic acid]
- glucose production (conscious rats): decrease endogenous glucose production
- blood glucose levels (conscious rats; intrahypothalamic infusion, conscious rats): lower blood glucose levels
